Here are results for 1 compound from article PMC5708805, “Novel molecular imaging ligands targeting matrix metalloproteinases 2 and 9 for imaging of unstable atherosclerotic plaques” (PLoS ONE, 2017).

The nature of data set [1]: In vivo biodistribution after intravenous injection in healthy mice. Conditions: healthy C57BL/6 mice. The method, then:
All experiments were approved by the institutional committee for animal experiments at the Academic Medical Center. C57BL/6 female mice (14–16 week) were purchased from Harlan and housed in the animal care facility at the Academic Medical Center. Animals were anesthetized using 126 mg ketamine, 100 μg dexdomitor, 500 μg atropine, 7.5 mL NaCl 0.9% of which 0.015 mL/g body weight was administered by intraperitoneal injection. In order to investigate the in vivo biodistribution of MMP ligand [^123I]10c, 4 MBq was administered intravenously in the tail vein and allowed to circulate for either 5, 15, 30, 60 minutes or 2, 3, 4, 6 and 24 hours (n = 3–4 animals for each time point). At the end of each circulation time, animals were sacrificed by bleeding through phosphate buffered saline solution (PBS) perfusion. After the animals were sacrificed, whole blood was collected by cardiac puncture, and selected organs were excised (heart, lungs, liver and kidneys). The organs were weighed and radioactivity was measured using a scintillation counter (TRT-CARB 2000CA, Perkin Elmer 1987). The measured radioactivity was expressed as the percentage of the injected dose per gram of tissue per gram of body weight (% ID/g/g).
The biodistribution of [^123I]10c was investigated following intravenous infusion of 4 MBq in healthy C57BL/6 mice. Following the bolus injection, the compound was allowed to circulate for 5, 15, 30, 60 minutes, 2, 3, 4, 6 and 24 hours. […] In the blood, stabilization of the compound was reached after at least 1 hour of circulation.
Fig 5 Biodistribution of [^123I]10c following intravenous infusion in healthy mice (n = 3–4 /group). Injected dose (ID) of radioactivity was measured in fat (A), muscle (B), liver (C), kidney (D), spleen (E), blood (F), heart (G) and lung (H) at varying time-points after injection. Values shown are mean ± SEM.

Data set [2] concerns atherosclerotic lesions containing MMP2 and MMP9. Briefly: In vivo binding to atherosclerotic plaques (ex vivo storage phosphor imaging of aortic arch, MMP2/9 immunohistochemistry). Also on record: species or system ApoE-/- mice. Conditions: 40 MBq i.v. As to the method:
To investigate selective binding of [^123I]10c to MMP2/9 found in atherosclerotic lesions, we examined the distribution of the [^123I]10c in 8–10 week old female ApoE-/- mice (n = 5, Charles River) that were fed a high fat Western diet (15% fat, 0.25% cholesterol; Arie Blok Diervoeding, Netherlands) for 4 weeks. These animals subsequently developed atherosclerotic plaques. 40 MBq of [^123I]10c were administered by intravenous injection in the tail vein and allowed to circulate for […]. Animals were euthanized by bleeding via PBS infusion. The aortic arch was excised and 10 μm serial sections were made. Aortic arch sections were placed on a phosphor imaging plate (Fuji) and the amount of radioactivity was measured using a storage phosphor imaging apparatus (Typhoon Trio; GE Healthcare Life Sciences). Sections were then stained with hematoxylin/eosin staining, or used for MMP2 and MMP9 detection. Prior to incubation with monoclonal goat-anti-mouse MMP2 (R&D Systems) and rabbit-anti-mouse MMP9 (Abcam), the sections were heated to improve antigen retrieval. Rabbit-anti-goat secondary antibodies (DAKO) were utilized on the MMP2 sections. Thereafter, all sections were probed with the PowerVision anti-rabbit polymer, conjugated to horseradish peroxidase (Immunologic), to reveal positive primary antibody binding by means of chromogen conversion of 3,3’-diaminobenzidine (DAB), followed by nuclear counterstaining with hematoxylin. Histological sections were imaged with a bright-field microscope. […]
To validate the efficacy of [^123I]10c as an appropriate tracer for detection of atherosclerotic plaques, we examined the in vivo uptake of this ligand in ApoE-/- mice that were fed a high-fat diet. […] 40 MBq of [^123I]10c was administered intravenously and allowed to circulate for 3 hours, after which the animals were euthanized and the aortic arch was excised for measuring radioactivity by storage phosphor imaging.
Fig 6 Binding of [^123I]10c to atherosclerotic lesions containing MMP2 and MMP9. […] The region with highest apparent radioactivity has been outlined. […]

Each structure is given as a SMILES string.

Turning to `O=C(O)CN(CC(=O)NO)S(=O)(=O)c1ccc(Oc2ccc([123I])cc2)cc1` [[^123I]10c, ([4-(4-[^123I]Iodophenoxy)benzenesulphonyl]hydroxycarbamoylmethylamino) acetic acid], in data set [1] (4 MBq i.v. bolus), the “circulation time until stabilization of the compound in blood” value is recorded as “at least 1 hour”. In data set [1] (4 MBq i.v., 5 min to 24 h), the “tissues with highest radioactivity (biodistribution)” value was “highest in the liver and blood”. In addition, the “accumulation in fat (biodistribution)” value in data set [1] (4 MBq i.v., 5 min to 24 h, relative to other tissues) is recorded as “lowest”. In data set [2] (ApoE-/- mice on high-fat diet, storage phosphor imaging), the “tracer uptake in diseased regions of the vessel wall” value is on record as “relatively high”. For the same compound, in data set [2] (ApoE-/- mice on high-fat diet, storage phosphor imaging of excised aortic arch), the “uptake in atherosclerotic lesions of the aortic arch” value was “detectable”. Moreover, in data set [2] (ApoE-/- mice, consecutive aortic arch sections), the “relation of tracer uptake to MMP2 and MMP9 immunohistochemical staining in lesions” value is “co-localizing”.
